Results on 35 molecules are retold here after patent publication US6881741B2 (ViroChem Pharma Inc., priority 2001, dated 2005).

Molecules are shown by their SMILES. Structures can show the parent of a compound that is named as a salt.

The experiment has as its target recombinant HCV NS5B (HCV RNA-dependent RNA polymerase) (Hepatitis C virus genotype 1b, UniProt P26663). The experiment in a line: biochemical. Conditions: HCV polymerase activity, list of compounds of Example 27; read-out: IC50 (polymerase activity).

recombinant HCV NS5B (HCV RNA-dependent RNA polymerase), sequence (P26663 2420-3010 limits assumed): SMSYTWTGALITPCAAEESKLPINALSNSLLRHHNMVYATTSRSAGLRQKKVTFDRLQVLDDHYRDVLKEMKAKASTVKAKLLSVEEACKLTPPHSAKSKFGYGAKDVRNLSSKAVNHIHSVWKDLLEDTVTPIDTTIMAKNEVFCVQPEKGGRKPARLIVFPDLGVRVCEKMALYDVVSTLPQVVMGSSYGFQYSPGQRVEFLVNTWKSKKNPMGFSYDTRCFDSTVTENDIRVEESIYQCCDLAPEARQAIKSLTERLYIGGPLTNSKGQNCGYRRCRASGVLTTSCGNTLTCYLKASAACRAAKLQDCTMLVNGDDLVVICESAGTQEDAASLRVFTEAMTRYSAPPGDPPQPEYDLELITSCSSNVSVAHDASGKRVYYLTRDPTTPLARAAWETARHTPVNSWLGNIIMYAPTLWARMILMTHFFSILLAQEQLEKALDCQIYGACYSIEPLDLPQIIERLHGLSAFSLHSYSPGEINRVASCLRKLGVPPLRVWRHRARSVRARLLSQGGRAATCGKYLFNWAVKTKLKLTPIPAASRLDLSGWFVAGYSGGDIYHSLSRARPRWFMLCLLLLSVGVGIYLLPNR

One may read the IC50 as the concentration at which inhibition is half-maximal. For `CO[C@H]1CCCCC1N(C(=O)c1ccc(Cl)cc1Cl)c1cc(-c2ccccc2)sc1C(=O)O` (some centres unmarked) [Compound 534, 3-[(2-DICHLORO-BENZOYL)-(2- METHOXY-CYCLOHEXYL)-AMINO]-5- PHENYL-THIOPHENE-2- CARBOXYLIC ACID], the IC50 is < 5 µM.
On to `CC1(C)OCC(N(C(=O)c2ccc(Cl)cc2Cl)c2cc(-c3ccccc3)sc2C(=O)O)CO1` [Compound 535, 3-[(2,4-DICHLORO-BENZOYL)-(2,2- DIMETHYL-[1,3]DIOXAN-5-YL)-AMINO]-5- PHENYL-THIOPHENE-2-CARBOXYLIC ACID], for which the IC50 was < 5 µM.
As for `CC1CCC(C(=O)N(c2cc(C3CCN(C)CC3)sc2C(=O)O)C(C)C)CC1` (centres unmarked) [Compound 536, 3-[ISOPROPYL-(4-METHYL- CYCLOHEXANECARBONYL)-AMINO]-5-(1- METHYL-PIPERIDIN-4-YL)-THIOPHENE-2- CARBOXYLIC ACID], the figure is < 5 µM; as for `CC(C)N(C(=O)[C@@H]1CC[C@@H](C)C[C@@H]1O)c1cc(-c2ccccc2)sc1C(=O)O` [Compound 540, 3-[((1R,2S,4R)-2-HYDROXY-4-METHYL- CYCLOHEXANECARBONYL)-ISOPROPYL- AMINO]-5-PHENYL-THIOPHENE-2- CARBOXYLIC ACID], < 5 µM; as for `COc1cc(C)c(S(=O)(=O)N2CC(C)=CCC2C(=O)N(c2cc(-c3ccccc3)sc2C(=O)O)C(C)C)c(C)c1C` (centres unmarked) [Compound 541, 3-(ISOPROPYL-[1-(4-METHOXY-2,3,6- TRIMETHYL-BENZENESULFONYL)-5- METHYL-1,2,3,6-TETRAHYDRO- PYRIDINE-2-CARBONYL]-AMINO)-5- PHENYL-THIOPHENE-2-CARBOXYLIC ACID], 5 to 20 µM.
As for `CC(C)N(C(=O)c1ccc(Cl)cc1Cl)c1c(C(=O)O)sc(-c2ccccc2)c1F` [Compound 542, 3-[(2,4-DICHLORO-BENZOYL)- ISOPROPYL-AMINO]-4-FLUORO-5- PHENYL-THIOPHENE-2-CARBOXYLIC ACID], the figure is 5 to 20 µM; as for `CC1CCC(C(=O)N(CC2CCNCC2)c2cc(-c3ccccc3)sc2C(=O)O)CC1` (centres unmarked) [Compound 544, 4-([(2-CARBOXY-5-PHENYL-THIOPHEN-3- YL)-(4-METHYL- CYCLOHEXANECARBONYL)-AMINO]- METHYL)-PIPERIDINIUM; TRIFLUORO- ACETATE], < 5 µM.
As for `CC(CNC(=O)OC(C)(C)C)N(C(=O)c1ccc(Cl)cc1Cl)c1cc(-c2ccccc2)sc1C(=O)O` (centres unmarked) [Compound 545, 3-[(2-TERT-BUTOXYCARBONYLAMINO-1- METHYL-ETHYL)-(2,4-DICHLORO- BENZOYL)-AMINO]-5-PHENYL- THIOPHENE-2-CARBOXYLIC ACID], the figure is < 5 µM; as for `CC(C[NH3+])N(C(=O)c1ccc(Cl)cc1Cl)c1cc(-c2ccccc2)sc1C(=O)O` (centres unmarked) [Compound 546, 2-[(2-CARBOXY-5-PHENYL-THIOPHEN-3- YL)-(2,4-DICHLORO-BENZOYL)-AMINO]- PROPYL-AMINE TRIFLUOROACETIC ACID SALT], < 5 µM; as for `O=C(O)c1sc(-c2ccccc2)cc1N(C(=O)c1ccc(Cl)cc1Cl)C1CCC(C(=O)O)C1` (centres unmarked) [Compound 548, 3-[(3-CARBOXY-CYCLOPENTYL)-(2,4- DICHLORO-BENZOYL)-AMINO]-5- PHENYL-THIOPHENE-2-CARBOXYLIC ACID], < 5 µM.
Take `NC1CCCCC1N(C(=O)c1ccc(Cl)cc1Cl)c1cc(-c2ccccc2)sc1C(=O)O` (centres unmarked) [Compound 549, 2-[(2-CARBOXY-5-PHENYL-THIOPHEN-3-YL)- (2,4-DICHLORO-BENZOYL)-AMINO]- CYCLOHEXYL-AMMONIUM; CHLORIDE]: the IC50 was < 5 µM.
The figure for `Cc1ccc(S(=O)(=O)Nc2cc(-c3ccccc3)sc2C(=O)NCC(=O)O)cc1` [Compound 551, {[5-PHENYL-3-(TOLUENE-4- SULFONYLAMINO)-THIOPHENE-2- CARBONYL]-AMINO}-ACETIC ACID] is 5 to 20 µM; for `Cc1ccccc1S(=O)(=O)Nc1cc(Br)sc1C(=O)O` [Compound 552, 5-BROMO-3-(TOLUENE-2- SULFONYLAMINO)-THIOPHENE-2- CARBOXYLIC ACID] it is 5 to 20 µM; for `O=C(O)c1sc(-c2ccccc2)cc1N(C(=O)c1ccc(Cl)cc1Cl)C1CCCCC1` [Compound 553, 3-[CYCLOHEXYL-(2,4-DICHLORO- BENZOYL)-AMINO]-5-PHENYL- THIOPHENE-2-CARBOXYLIC ACID] it is < 5 µM.
For the molecule `CC1CCC(C(=O)N(c2cc(-c3ccccc3)sc2C(=O)O)C2COCOC2)CC1` (centres unmarked) [Compound 554, 3-[[1,3]DIOXAN-5-YL-(4-METHYL- CYCLOHEXANECARBONYL)-AMINO]-5- PHENYL-THIOPHENE-2-CARBOXYLIC ACID], the IC50 is < 5 µM.
As for `CCN(CC)c1ncc(CN(C(=O)c2ccc(Cl)cc2Cl)c2cc(-c3ccccc3)sc2C(=O)O)s1` [Compound 557, 3-[(2,4-DICHLORO-BENZOYL)-(2- DIETHYLAMINO-THIAZOL-5-YLMETHYL)- AMINO]-5-PHENYL-THIOPHENE-2- CARBOXYLIC ACID], the figure is < 5 µM; as for `CC[NH+](CC)c1ncc(CN(C(=O)c2ccc(Cl)cc2Cl)c2cc(-c3ccccc3)sc2C(=O)O)s1` [Compound 558, (5-{[[2-CARBOXY-5-PHENYL-THIOPHEN-3- YL)-(2,4-DICHLORO-BENZOYL)-AMINO]- METHYL}-THIAZOL-2-YL)-DIETHYL- AMMONIUM; CHLORIDE], < 5 µM; as for `CC1CCC(C(=O)N(c2cc(-c3ccc(F)cc3)sc2C(=O)O)C(C)C)CC1` (centres unmarked) [Compound 559, 5-(4-FLUORO-PHENYL)-3-[ISOPROPYL-(4- METHYL-CYCLOHEXANECARBONYL)- AMINO]-THIOPHENE-2-CARBOXYLIC ACID], < 5 µM.
As for `CC(C)N(C(=O)[C@H]1CC[C@H](C)C[C@H]1O)c1cc(-c2ccc(F)cc2)sc1C(=O)O` [Compound 560], the figure is < 5 µM; as for `COCC(C)N(C(=O)c1ccc(Cl)cc1Cl)c1cc(-c2ccccc2)sc1C(=O)O` (centres unmarked) [Compound 561, 3-[(2,4-DICHLORO-BENZOYL)-(2- METHOXY-1-METHYL-ETHYL)-AMINO]-5- PHENYL-THIOPHENE-2-CARBOXYLIC ACID], < 5 µM; as for `CC(C)N(C(=O)C1=CC[C@@H](C)CC1)c1cc(-c2ccccc2)sc1C(=O)O` [Compound 562, 3-[(4S)-ISOPROPYL-(4-METHYL- CYCLOHEX-1-ENECARBONYL)-AMINO]-5- PHENYL-THIOPHENE-2-CARBOXYLIC ACID], < 5 µM.
Take `Cc1ccc(S(=O)(=O)Nc2cc(-c3ccc(Cl)cc3)sc2C(N)=O)cc1` [Compound 563, 5-(4-CHLORO-PHENYL)-3-(TOLUENE-4- SULFONYLAMINO)-THIOPHENE-2- CARBOXYLIC ACID AMIDE]: the IC50 was 5 to 20 µM.
As for `Cc1ccc(S(=O)(=O)Nc2cc(-c3ccc(F)cc3)sc2C(N)=O)cc1` [Compound 564, 5-(4-FLUORO-PHENYL)-3-(TOLUENE-4- SULFONYLAMINO)-THIOPHENE-2- CARBOXYLIC ACID AMIDE], the figure is 5 to 20 µM.
As for `COc1ccc(-c2cc(NS(=O)(=O)c3ccc(C)cc3)c(C(N)=O)s2)cc1` [Compound 565, 5-(4-METHOXY-PHENYL)-3-(TOLUENE-4- SULFONYLAMINO)-THIOPHENE-2- CARBOXYLIC ACID AMIDE], the figure is 5 to 20 µM; as for `Cc1ccc(S(=O)(=O)Nc2cc(-c3ccccc3)sc2C(=O)NC2CCC2)cc1` [Compound 567, 5-PHENYL-3-(TOLUENE-4- SULFONYLAMINO)-THIOPHENE-2- CARBOXYLIC ACID CYCLOBUTYLAMIDE], 5 to 20 µM; as for `Cc1ccc(S(=O)(=O)Nc2cc(-c3ccccc3)sc2C(N)=O)c(C)c1` [Compound 568, 3-(2,4-DIMETHYL- BENZENESULFONYLAMINO)-5-PHENYL- THIOPHENE-2-CARBOXYLIC ACID AMIDE], 5 to 20 µM.
As for `CC1CCC(C(=O)N(c2cc(-c3ccc(Cl)cc3)sc2C(=O)O)C(C)C)CC1` (centres unmarked) [Compound 570, 5-(4-CHLORO-PHENYL)-3-[ISOPROPYL-(4- METHYL-CYCLOHEXANECARBONYL)- AMINO]-THIOPHENE-2-CARBOXYLIC ACID], the figure is < 5 µM.
`CC(C)N(c1cc(-c2ccc(-c3ccc(Cl)cc3)cc2)sc1C(=O)O)C(=O)[C@H]1CC[C@H](C)CC1` [Compound 571, 5-(4′-CHLORO-BIPHENYL-4-YL)-3- [ISOPROPYL-(4-METHYL- CYCLOHEXANECARBONYL)-AMINO]- THIOPHENE-2-CARBOXYLIC ACID]: the IC50 is < 5 µM.
As for `CC1CCC(C(=O)N(c2cc(-c3ccccc3)sc2C(=O)O)C2CCOCC2)CC1` (centres unmarked) [Compound 572, 3-[(4-METHYL- CYCLOHEXANECARBONYL)- (TETRAHYDRO-PYRAN-4-YL)-AMINO]-5- PHENYL-THIOPHENE-2-CARBOXYLIC ACID], the figure is < 5 µM; as for `CC1CCC(C(=O)N(c2cc(-c3ccc(C(F)(F)F)cc3)sc2C(=O)O)C(C)C)CC1` (centres unmarked) [Compound 575, 3-[ISOPROPYL-(4-METHYL- CYCLOHEXANECARBONYL)-AMINO]-5-(4- TRIFLUOROMETHYL-PHENYL)- THIOPHENE-2-CARBOXYLIC ACID], < 5 µM; as for `CC1CCC(C(=O)N(c2cc(-c3ccc(C#N)cc3)sc2C(=O)O)C(C)C)CC1` (centres unmarked) [Compound 576, 5-(4-CYANO-PHENYL-3-[ISOPROPYL-(4- METHYL-CYCLOHEXANECARBONYL)- AMINO]-THIOPHENE-2-CARBOXYLIC ACID], < 5 µM.
For the molecule `COc1ccc(-c2cc(N(C(=O)C3CCC(C)CC3)C(C)C)c(C(=O)O)s2)cc1` (centres unmarked) [Compound 577, 3-[ISOPROPYL-(4-METHYL- CYCLOHEXANECARBONYL)-AMINO]-5-(4- METHOXY-PHENYL)-THIOPHENE-2- CARBOXYLIC ACID], the IC50 is < 5 µM.
As for `COCC(C)N(C(=O)C1CCC(C)CC1)c1cc(-c2ccccc2)sc1C(=O)O` (centres unmarked) [Compound 578, 3-[(2-METHOXY-1-METHYL-ETHYL)-(4- METHYL-CYCLOHEXANECARBONYL)- AMINO]-5-PHENYL-THIOPHENE-2- CARBOXYLIC ACID], the figure is < 5 µM; as for `CC1CCC(C(=O)N(c2cc(-c3ccccc3)sc2C(=O)O)C2CCCCC2)CC1` (centres unmarked) [Compound 579, 3-[CYCLOHEXYL-(4-METHYL- CYCLOHEXANECARBONYL)-AMINO]-5- PHENYL-THIOPHENE-2-CARBOXYLIC ACID], < 5 µM; as for `Cc1cc(S(=O)(=O)Nc2cc(-c3ccccc3)sc2C(N)=O)c(C)cc1Cl` [Compound 580, 3-(4-CHLORO-2,5 DIMETHYL- BENZENESULFONYLAMINO)-5-PHENYL- THIOPHENE-2-CARBOXYLIC ACID AMIDE], < 5 µM.
